In data set [1] the test system is murine cytotoxic T-lymphocyte responses. Nature of the data set: cells. In kind it is cell-based. The note with it: for CTL activity (% specific ^51 Cr release): 90:1 effector to target. The text has this: Immunosuppressive Activity of Vitamin D compounds on cytotoxic T lymphocyte Responses-General Test Description
Cytotoxic thymus-derived lymphocytes (CTL) constitute an important aspect of immune function and, as a result, play a key role in the rejection of grafted cells, tissues and organs. It is, therefore, essential to suppress CTL generation in a clinical situation in which CTL function is antithetical to the desired outcome as, for example, in transplantation. Cytotoxic T-lymphocytes have been studied for several years by many investigators and methods to evaluate CTL responses in vitro are well established.
As described below, CTL responses as affected by Vitamin D derivatives, were studied in vitro using cells from lab animals and human volunteers. Cytotoxic T-lymphocytes were generated from responder lymphoid cells in tissue culture medium during an incubation period of 6 days by exposure to foreign stimulator cells, i.e. from a genetically disparate source. A portion of the resultant effector cells were CTL capable of killing fresh cells related to the stimulator cells employed in the 6 day culture. To detect killing of cells by CTL, fresh target cells were incubated in excess ^51 chromium (as sodium chromate) until they were extensively labelled. Since target cells will retain the internalized radioisotope as long as they are viable but release the label when they are killed, CTL activity was assessed by quantitating the chromium released from target cells after a 4 or 18 hour incubation with CTL. Immunosuppression produced by Vitamin D derivatives was gauged as the ability to inhibit CTL responses during the initial incubation period relative to control cultures to which no Vitamin D derivative was added.
Female BALB/c By and C57BL/6 mice were obtained from Jackson Laboratories and were used between 8 and 10 weeks of age. Mice were given food and water ad libitum and were kept in a 12 hour light and 12 hour dark cycle.
For murine cultures, minimal essential medium with Hank's salts was supplemented to 1 millimolar with sodium pyruvate, to 0.1 millimolar with nonessential amino acids, to 2 millimolar with 1-glutamine, to 10% (v/v) with heat-inactivated fetal bovine serum, to 50 micrograms per ml with gentamicin, and to 1000 milligrams per liter with sodium bicarbonate and was used as tissue culture medium.
Stock solutions of Vitamin D derivatives were made in argon-saturated ethanol at a final concentration of 1×10^-2 molar, were covered with argon before sealing and were stored at -20° C. in the dark. Reduced lighting conditions were always employed when working with compounds. Compounds were diluted in tissue culture medium to 1×10^-4 molar and all subsequent dilutions were done in tissue culture medium containing 1% v/v ethanol. The final dilution into culture vessels was 1:10 thus keeping the vehicle concentration constant at 0.1% while varying the concentration of compound as tabulated in the results. For purposes of control, mixed leukocyte cultures were incubated in medium only (medium control) or in medium containing a final concentration of 0.1% ethanol (vehicle control).
Murine cytotoxic T-lymphocytes were generated in mixed leukocyte cultures by known methods. Specifically, single cell suspensions were prepared from spleens by gentle disruption in balanced salt solution (Hanks' balanced salt solution supplemented to 10%, v/v, with fetal bovine serum). After sedimentation on ice to remove particulate debris, cell suspensions were centrifuged at 400xg and were resuspended in fresh balanced salt solution. Cells to be used as stimulator cells were precluded from proliferating or generating cytotoxic T-lymphocytes by exposure to 1000 rads of gamma irradiation using a ^137 cesium source. […]

The subject of data set [2] is human cytotoxic T-lymphocyte responses. The data set can be described thus: Inhibition of human CTL responses (mixed leukocyte-tumor cultures, HT-144 melanoma, ^51 Cr release). The settings on record: for inhibition at 1 µM / inhibition at 0.1 µM: Homo sapiens, T-lymphocyte, read-out: Inhibition of CTL activity (%). In kind it is cell-based. Here is the method:
Human cells for the tests described below were taken from four donors designated I, II, III, and IV in the tables below.
Stock solutions of Vitamin D derivatives were prepared as they were prepared above in the murine tests.
Human cytotoxic T-lymphocytes were generated in mixed leukocyte-tumor cultures by known methods. Specifically, blood from normal volunteer donors was drawn into heparinized syringes, diluted 1:1 with calcium-magnesium free Hanks' balanced salt solution (Ca-Mg free HBSS), and layered over lymphocyte separation medium (Litton Bionetics, Kensington, MD). After centrifugation at 500xg for 20-30 min at room temperature, peripheral blood mononuclear cells were harvested from the interface. The peripheral blood mononuclear leukocytes were centrifuged and resuspended in Ca-Mg free HBSS and were subsequently separated from platelets by centrifugation at 500xg through a solution of 20% sucrose and 1% human AB serum in Ca-Mg free HBSS. The cells were washed once and finally resuspended in tissue culture medium. […] Cells to be used as stimulator cells in mixed leukocyte-tumor cultures were irradiated with 10,000 rads of gamma irradiation to preclude proliferation in culture. Mixed leukocyte-tumor cell cultures were established in 16 mm tissue culture wells at a final volume of 1.5 ml per well containing 2×10^6 peripheral blood mononuclear leukocytes and 5×10^4 irradiation-inactivated stimulator cells. In order to prevent the generation of nonspecific cytotoxic cells in these cultures, hydrocortisone sodium succinate was added to each culture at a final concentration of 1×10^-5 M. Mixed leukocyte-tumor cultures were incubated for 6 days in a humidified atmosphere of 5% CO2 in air.
Labelled target cells were washed free of unbound isotope by 3 serial washes in tissue culture medium and were finally resuspended at a concentration of 5×10^4 cells per ml.
Assays of human cytotoxic T-lymphocytes were done by known methods. Specifically, one-tenth ml aliquots of ^51 Cr-labelled target cell suspension were added to "half area" microtest plates and were incubated at 37° C. for 18 hours in a humidified atmosphere of 5% CO2 in air to permit the cells to adhere and spread on the floor of each well. Culture medium was then aspirated from each well and was replaced with 0.1 ml of tissue culture medium containing cells harvested from mixed leukocyte-tumor cultures which had been processed as described for murine mixed leukocute cultures, above. Control wells for measurement of spontaneous ^51 Cr release received medium without effector cells and wells for measurement of maximal releasable ^51 Cr received 0.1 ml of 2% sodium dodecyl sulfate in distilled water. After overnight incubation at 37° in a humidified atmosphere of 5% CO2 in air, 0.05 ml of cell-free supernatant was withdrawn from each well and the amount of released ^51 Cr was quantitated using a gamma spectrometer. The percentage of specific ^51 Cr release (CTL activity) and the percent inhibition of CTL activity were calculated with the same formulas used above for the murine CTL assay.
Tests conducted on human cytotoxic T-lymphocyte responses are reported as the mean±standard error of the mean from triplicate ^51 Cr release determinations on pooled cells from duplicate control or test cultures.

[3] abbreviates: Test 1 (hexafluoro compounds), donor I, 1 × 10^-6 molar, 0.1% ethanol, effector to target 8:1.
The mark [4] stands for this setting: Test 1 (hexafluoro compounds), donor I, 1 × 10^-7 molar, 0.1% ethanol, effector to target 8:1.

Read-outs that look alike come from different tables or passages of the source.

Regarding `C=C1/C(=C\C=C2/CCC[C@]3(C)[C@@H]([C@H](C)CC4CC(C)(O)C(=O)O4)CC[C@@H]23)C[C@@H](O)C[C@@H]1O` (stereo partly drawn) [1α,25-(OH)2 --D3-(26,23)-lactone, 1α,25-Dihydroxycholecalciferol-26,23-lactone], the inhibition at 10 µM in data set [1] (Mus musculus, T-lymphocyte, Table I, 1 × 10^-5 molar, vs vehicle control, read-out: Inhibition of CTL activity (%)) worked out at 80%. The inhibition at 1 µM in data set [1] (Mus musculus, T-lymphocyte, Table I, 1 × 10^-6 molar, vs vehicle control, read-out: Inhibition of CTL activity (%)) was determined as 63%. Further, in data set [1] (Mus musculus, T-lymphocyte, Table I, 1 × 10^-7 molar, vs vehicle control, read-out: Inhibition of CTL activity (%)), the inhibition at 0.1 µM is 37%. In addition, the inhibition at 0.01 µM in data set [1] (Mus musculus, T-lymphocyte, Table I, 1 × 10^-8 molar, vs vehicle control, read-out: Inhibition of CTL activity (%)) is 9%. Also, the inhibition at 0.001 µM in data set [1] (Mus musculus, T-lymphocyte, Table I, 1 × 10^-9 molar, vs vehicle control, read-out: Inhibition of CTL activity (%)) worked out at 3%. Besides, the inhibition at 0.0001 µM in data set [1] (Mus musculus, T-lymphocyte, Table I, 1 × 10^-10 molar, vs vehicle control, read-out: Inhibition of CTL activity (%)) turned out to be 7%. Besides, the “CTL activity (% specific ^51 Cr release)” value is recorded as 11 % specific ^51 Cr release in data set [1] (Table I, 1 × 10^-5 molar); 20 % specific ^51 Cr release in data set [1] (Table I, 1 × 10^-6 molar); 34 % specific ^51 Cr release in data set [1] (Table I, 1 × 10^-7 molar); 49 % specific ^51 Cr release in data set [1] (Table I, 1 × 10^-8 molar); 52 % specific ^51 Cr release in data set [1] (Table I, 1 × 10^-9 molar); 50 % specific ^51 Cr release in data set [1] (Table I, 1 × 10^-10 molar). The “suppression of murine cytotoxic T-lymphocyte responses (in words)” value in data set [1] (in vitro) is recorded as “suppress murine cytotoxic T-lymphocyte responses”.
Regarding `C=C1/C(=C\C=C2/CCC[C@]3(C)[C@@H]([C@H](C)C=CCC(O)(C(F)(F)F)C(F)(F)F)CC[C@@H]23)C[C@@H](O)C[C@@H]1O` [26,26,26,27,27,27-Hexafluoro-1α,25-dihydroxy-Δ^22-cholecalciferol], in data set [2] (setting [3]), the inhibition at 1 µM was 80% and the “CTL activity (% specific ^51 Cr release)” value was 13 ± 0.1 % specific ^51 Cr release. In data set [2] (setting [4]), the inhibition at 0.1 µM was determined as 64% and the “CTL activity (% specific ^51 Cr release)” value amounted to 23 ± 2 % specific ^51 Cr release.
Turning to `C=C1/C(=C\C=C2/CCC[C@]3(C)[C@@H]([C@H](C)CCCC(O)(C(F)(F)F)C(F)(F)F)CC[C@@H]23)C[C@@H](O)C[C@@H]1O` [26,26,26,27,27,27-hexafluoro-1α,25-dihydroxycholecalciferol], the inhibition at 0.1 µM in data set [2] was determined as 64%. The inhibition at 1 µM in data set [2] came to 77%. The entries for the “CTL activity (% specific ^51 Cr release)” value in data set [2] (setting [3]) and in data set [2] (setting [4]) were 15 ± 2 % specific ^51 Cr release and 23 ± 3 % specific ^51 Cr release, respectively.

These data come from patent publication US4749710A, “Immunosuppressive agents” (priority 1985, dated 1988).
